Experiments:
[1] = biological target: CDK6/cyclin D3 (Homo sapiens) (UniProt P30281+Q00534); assay: CDK6/cyclinD3(h) Eurofins kinase panel; format: protein-complex assay; conditions: Compound concentration 1.0 uM
[2] = biological target: Casein kinase I isoform gamma-3 (Homo sapiens) (UniProt Q9Y6M4); assay: CK1gamma3(h) Eurofins kinase panel; conditions: Compound concentration 1.0 uM
[3] = biological target: T1, Serine/threonine-protein kinase 17B (Homo sapiens) (UniProt O94768); assay: DRAK2(h) Eurofins kinase panel; conditions: Compound concentration 1.0 uM
T1 sequence (whole entry): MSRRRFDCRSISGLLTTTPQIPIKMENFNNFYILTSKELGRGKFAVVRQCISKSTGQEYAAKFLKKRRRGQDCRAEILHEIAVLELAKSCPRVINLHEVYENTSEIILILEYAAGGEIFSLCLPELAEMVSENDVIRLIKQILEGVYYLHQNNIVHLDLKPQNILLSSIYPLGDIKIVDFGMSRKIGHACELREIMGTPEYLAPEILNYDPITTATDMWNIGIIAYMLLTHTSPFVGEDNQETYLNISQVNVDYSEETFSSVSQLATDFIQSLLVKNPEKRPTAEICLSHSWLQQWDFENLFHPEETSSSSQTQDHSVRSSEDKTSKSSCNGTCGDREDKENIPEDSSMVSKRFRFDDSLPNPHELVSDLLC

[4] = biological target: Ephrin type-A receptor 4 (Homo sapiens) (UniProt P54764); assay: EphA4(h) Eurofins kinase panel; conditions: Compound concentration 1.0 uM
[5] = biological target: T2, Ephrin type-B receptor 3 (Homo sapiens) (UniProt P54753); assay: EphB3(h) Eurofins kinase panel; conditions: Compound concentration 1.0 uM
T2 sequence (whole entry): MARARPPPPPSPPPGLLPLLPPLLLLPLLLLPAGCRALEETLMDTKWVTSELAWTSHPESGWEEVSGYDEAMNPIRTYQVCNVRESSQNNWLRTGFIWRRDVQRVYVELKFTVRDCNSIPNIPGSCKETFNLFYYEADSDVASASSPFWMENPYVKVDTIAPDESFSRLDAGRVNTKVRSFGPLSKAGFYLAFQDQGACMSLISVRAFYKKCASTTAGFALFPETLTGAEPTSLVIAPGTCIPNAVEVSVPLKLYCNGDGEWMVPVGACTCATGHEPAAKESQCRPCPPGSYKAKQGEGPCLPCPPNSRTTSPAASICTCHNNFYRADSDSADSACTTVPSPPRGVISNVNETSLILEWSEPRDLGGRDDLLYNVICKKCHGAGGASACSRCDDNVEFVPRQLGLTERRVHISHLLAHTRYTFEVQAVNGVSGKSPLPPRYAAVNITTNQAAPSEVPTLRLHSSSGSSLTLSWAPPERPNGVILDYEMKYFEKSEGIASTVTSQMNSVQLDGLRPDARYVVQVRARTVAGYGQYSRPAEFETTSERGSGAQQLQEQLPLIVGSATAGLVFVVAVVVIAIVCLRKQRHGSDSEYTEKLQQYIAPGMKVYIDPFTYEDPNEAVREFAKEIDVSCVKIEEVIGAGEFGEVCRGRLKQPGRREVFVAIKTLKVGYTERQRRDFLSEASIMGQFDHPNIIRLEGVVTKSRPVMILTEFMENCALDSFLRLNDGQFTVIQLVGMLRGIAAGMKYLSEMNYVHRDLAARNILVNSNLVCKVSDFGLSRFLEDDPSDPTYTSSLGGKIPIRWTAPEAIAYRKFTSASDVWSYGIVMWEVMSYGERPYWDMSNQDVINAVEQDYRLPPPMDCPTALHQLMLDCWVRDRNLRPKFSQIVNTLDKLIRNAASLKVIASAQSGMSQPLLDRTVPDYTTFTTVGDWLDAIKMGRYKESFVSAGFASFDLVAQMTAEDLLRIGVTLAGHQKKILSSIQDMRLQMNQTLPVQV

[6] = biological target: Fibroblast growth factor receptor 4 (Homo sapiens) (UniProt P22455); assay: FGFR4(h) Eurofins kinase panel; conditions: Compound concentration 1.0 uM
[7] = biological target: Homeodomain-interacting protein kinase 1 (Homo sapiens) (UniProt Q86Z02); assay: HIPK1(h) Eurofins kinase panel; conditions: Compound concentration 1.0 uM
[8] = biological target: Eukaryotic translation initiation factor 2-alpha kinase 1 (Homo sapiens) (UniProt Q9BQI3); assay: HRI(h) Eurofins kinase panel; conditions: Compound concentration 1.0 uM
[9] = biological target: Mitogen-activated protein kinase 10 (Homo sapiens) (UniProt P53779); assay: JNK3(h) Eurofins kinase panel; conditions: Compound concentration 1.0 uM
[10] = biological target: MAP kinase-interacting serine/threonine-protein kinase 2 (Homo sapiens) (UniProt Q9HBH9); assay: Mnk2(h) Eurofins kinase panel; conditions: Compound concentration 1.0 uM
[11] = biological target: Protein kinase C beta type (Homo sapiens) (UniProt P05771); assay: PKCbetaII (h) Eurofins kinase panel; conditions: Compound concentration 1.0 uM
[12] = biological target: T3, Tyrosine-protein kinase Tec (Homo sapiens) (UniProt P42680); assay: Tec(h) activated Eurofins kinase panel; conditions: Compound concentration 1.0 uM
T3 sequence (whole entry): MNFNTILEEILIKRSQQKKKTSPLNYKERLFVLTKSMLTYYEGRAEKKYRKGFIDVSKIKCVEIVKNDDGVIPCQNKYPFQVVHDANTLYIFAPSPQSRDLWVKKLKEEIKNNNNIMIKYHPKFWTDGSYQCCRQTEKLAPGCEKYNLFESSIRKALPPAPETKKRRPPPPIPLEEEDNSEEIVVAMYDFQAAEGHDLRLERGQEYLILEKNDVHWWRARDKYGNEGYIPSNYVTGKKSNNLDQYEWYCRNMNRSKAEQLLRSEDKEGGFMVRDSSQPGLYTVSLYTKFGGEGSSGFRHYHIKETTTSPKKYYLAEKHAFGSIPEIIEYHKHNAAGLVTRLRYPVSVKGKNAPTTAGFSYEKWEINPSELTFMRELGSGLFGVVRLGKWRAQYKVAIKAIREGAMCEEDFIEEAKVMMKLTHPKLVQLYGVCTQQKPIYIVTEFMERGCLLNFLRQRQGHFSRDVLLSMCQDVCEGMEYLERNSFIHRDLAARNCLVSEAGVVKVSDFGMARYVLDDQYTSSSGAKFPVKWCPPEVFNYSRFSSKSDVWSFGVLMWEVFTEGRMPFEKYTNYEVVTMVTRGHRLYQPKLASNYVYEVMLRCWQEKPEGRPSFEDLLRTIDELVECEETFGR

[13] = biological target: NT-3 growth factor receptor (Homo sapiens) (UniProt Q16288); assay: TrkC(h) Eurofins kinase panel; conditions: Compound concentration 1.0 uM
[14] = biological target: D(1A) dopamine receptor (Homo sapiens) (UniProt P21728); conditions: Compound concentration 10.0 uM
D(1A) dopamine receptor (Homo sapiens), sequence (P21728 whole entry): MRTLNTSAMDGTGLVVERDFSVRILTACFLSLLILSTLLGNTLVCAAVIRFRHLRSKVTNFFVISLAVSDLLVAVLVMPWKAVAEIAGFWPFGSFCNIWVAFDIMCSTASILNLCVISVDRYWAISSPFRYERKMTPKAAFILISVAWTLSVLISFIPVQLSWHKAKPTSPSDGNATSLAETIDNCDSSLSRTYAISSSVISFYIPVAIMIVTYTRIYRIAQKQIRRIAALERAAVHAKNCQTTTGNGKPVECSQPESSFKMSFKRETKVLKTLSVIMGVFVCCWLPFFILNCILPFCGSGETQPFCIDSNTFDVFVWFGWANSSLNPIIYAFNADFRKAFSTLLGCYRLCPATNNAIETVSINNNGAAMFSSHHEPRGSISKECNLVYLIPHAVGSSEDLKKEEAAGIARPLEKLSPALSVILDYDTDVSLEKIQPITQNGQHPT

MAP kinase-interacting serine/threonine-protein kinase 2 (Homo sapiens), sequence (Q9HBH9 whole entry, looked up): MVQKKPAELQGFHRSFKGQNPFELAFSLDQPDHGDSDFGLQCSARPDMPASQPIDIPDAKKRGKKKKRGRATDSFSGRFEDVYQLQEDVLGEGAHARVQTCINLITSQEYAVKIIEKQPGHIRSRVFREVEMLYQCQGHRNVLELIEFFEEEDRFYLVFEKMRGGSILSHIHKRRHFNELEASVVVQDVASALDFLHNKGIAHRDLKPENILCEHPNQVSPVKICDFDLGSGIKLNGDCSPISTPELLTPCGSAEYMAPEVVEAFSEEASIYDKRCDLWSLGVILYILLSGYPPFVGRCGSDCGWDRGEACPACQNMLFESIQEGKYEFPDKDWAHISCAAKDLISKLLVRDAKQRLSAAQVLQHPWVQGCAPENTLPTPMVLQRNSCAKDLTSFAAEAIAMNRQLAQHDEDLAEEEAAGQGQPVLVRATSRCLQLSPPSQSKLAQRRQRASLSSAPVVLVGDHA
NT-3 growth factor receptor (Homo sapiens), sequence (Q16288 32-839 limits assumed): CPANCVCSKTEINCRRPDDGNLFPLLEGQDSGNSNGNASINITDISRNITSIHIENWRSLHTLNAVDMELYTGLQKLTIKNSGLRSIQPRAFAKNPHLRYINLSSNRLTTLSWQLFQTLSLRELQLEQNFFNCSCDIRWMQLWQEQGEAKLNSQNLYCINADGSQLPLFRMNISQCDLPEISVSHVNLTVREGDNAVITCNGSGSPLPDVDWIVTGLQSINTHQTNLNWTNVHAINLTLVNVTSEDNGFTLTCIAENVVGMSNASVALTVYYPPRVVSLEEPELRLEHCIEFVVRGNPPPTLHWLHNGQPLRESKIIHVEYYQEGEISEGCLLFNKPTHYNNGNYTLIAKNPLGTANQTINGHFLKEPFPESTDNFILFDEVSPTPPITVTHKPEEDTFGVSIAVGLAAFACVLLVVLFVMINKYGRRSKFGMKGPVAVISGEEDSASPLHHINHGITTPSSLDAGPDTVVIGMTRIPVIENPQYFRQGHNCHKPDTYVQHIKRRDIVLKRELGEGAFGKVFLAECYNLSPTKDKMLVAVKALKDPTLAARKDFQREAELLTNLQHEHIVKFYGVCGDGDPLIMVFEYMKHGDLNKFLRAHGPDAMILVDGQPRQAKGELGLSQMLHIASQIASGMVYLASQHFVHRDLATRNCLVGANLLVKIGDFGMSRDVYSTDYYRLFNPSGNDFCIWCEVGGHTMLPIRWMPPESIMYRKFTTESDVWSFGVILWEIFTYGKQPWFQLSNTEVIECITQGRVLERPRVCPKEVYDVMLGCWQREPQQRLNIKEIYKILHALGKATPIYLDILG
Fibroblast growth factor receptor 4 (Homo sapiens), sequence (P22455 22-802 limits assumed): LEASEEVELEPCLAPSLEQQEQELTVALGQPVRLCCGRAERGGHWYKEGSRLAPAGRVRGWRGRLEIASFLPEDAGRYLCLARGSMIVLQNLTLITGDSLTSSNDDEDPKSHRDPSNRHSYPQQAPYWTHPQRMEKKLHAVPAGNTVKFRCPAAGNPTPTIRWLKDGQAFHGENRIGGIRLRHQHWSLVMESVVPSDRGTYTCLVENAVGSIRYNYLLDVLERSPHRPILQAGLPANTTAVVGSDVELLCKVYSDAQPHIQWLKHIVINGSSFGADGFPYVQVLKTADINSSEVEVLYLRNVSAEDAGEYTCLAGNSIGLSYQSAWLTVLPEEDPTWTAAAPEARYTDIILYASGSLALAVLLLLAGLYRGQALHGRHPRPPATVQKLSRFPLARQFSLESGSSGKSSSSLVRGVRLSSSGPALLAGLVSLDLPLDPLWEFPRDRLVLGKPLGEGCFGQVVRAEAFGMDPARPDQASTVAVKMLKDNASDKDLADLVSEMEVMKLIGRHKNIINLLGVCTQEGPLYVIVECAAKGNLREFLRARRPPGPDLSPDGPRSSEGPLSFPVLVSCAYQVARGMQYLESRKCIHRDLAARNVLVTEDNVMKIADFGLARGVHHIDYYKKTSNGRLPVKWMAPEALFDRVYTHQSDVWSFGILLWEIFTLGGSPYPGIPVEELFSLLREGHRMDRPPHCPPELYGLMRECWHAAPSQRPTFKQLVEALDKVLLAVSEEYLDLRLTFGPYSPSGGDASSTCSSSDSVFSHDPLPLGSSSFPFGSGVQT
Protein kinase C beta type (Homo sapiens), sequence (P05771 2-671 limits assumed): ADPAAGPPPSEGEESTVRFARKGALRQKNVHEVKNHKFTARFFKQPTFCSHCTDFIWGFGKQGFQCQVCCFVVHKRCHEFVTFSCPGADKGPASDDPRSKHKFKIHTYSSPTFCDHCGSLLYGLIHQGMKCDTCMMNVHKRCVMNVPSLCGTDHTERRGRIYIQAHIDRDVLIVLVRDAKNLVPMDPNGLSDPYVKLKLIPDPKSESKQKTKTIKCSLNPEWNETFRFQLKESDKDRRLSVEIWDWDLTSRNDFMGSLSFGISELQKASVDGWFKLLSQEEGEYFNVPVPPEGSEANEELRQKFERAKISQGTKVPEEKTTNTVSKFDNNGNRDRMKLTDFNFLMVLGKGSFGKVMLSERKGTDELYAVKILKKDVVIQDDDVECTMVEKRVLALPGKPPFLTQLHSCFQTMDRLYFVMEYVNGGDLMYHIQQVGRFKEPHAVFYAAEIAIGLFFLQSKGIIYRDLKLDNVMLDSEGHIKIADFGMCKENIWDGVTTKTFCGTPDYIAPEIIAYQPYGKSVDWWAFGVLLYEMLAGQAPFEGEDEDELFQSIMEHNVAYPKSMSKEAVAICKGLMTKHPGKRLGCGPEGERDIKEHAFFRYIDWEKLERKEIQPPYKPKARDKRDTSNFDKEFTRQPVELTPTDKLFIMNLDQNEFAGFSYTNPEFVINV
Eukaryotic translation initiation factor 2-alpha kinase 1 (Homo sapiens), sequence (Q9BQI3 whole entry): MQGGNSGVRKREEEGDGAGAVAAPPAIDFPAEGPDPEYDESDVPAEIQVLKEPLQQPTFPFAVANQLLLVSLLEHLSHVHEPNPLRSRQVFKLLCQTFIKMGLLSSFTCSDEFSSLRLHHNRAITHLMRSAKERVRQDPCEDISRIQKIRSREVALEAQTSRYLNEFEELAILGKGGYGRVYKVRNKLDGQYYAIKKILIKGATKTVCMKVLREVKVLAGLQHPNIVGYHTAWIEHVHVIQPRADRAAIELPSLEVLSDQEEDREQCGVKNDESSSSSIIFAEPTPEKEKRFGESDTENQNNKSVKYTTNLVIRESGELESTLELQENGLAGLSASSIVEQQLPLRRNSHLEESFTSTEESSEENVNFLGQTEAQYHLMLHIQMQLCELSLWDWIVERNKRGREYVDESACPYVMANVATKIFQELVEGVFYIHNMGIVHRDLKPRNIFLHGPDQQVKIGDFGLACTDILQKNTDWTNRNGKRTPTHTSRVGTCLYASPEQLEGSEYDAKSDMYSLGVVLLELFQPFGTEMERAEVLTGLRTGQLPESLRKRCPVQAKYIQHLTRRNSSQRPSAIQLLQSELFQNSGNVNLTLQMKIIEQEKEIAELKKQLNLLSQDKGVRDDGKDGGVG
Casein kinase I isoform gamma-3 (Homo sapiens), sequence (Q9Y6M4 whole entry, looked up, canonical isoform): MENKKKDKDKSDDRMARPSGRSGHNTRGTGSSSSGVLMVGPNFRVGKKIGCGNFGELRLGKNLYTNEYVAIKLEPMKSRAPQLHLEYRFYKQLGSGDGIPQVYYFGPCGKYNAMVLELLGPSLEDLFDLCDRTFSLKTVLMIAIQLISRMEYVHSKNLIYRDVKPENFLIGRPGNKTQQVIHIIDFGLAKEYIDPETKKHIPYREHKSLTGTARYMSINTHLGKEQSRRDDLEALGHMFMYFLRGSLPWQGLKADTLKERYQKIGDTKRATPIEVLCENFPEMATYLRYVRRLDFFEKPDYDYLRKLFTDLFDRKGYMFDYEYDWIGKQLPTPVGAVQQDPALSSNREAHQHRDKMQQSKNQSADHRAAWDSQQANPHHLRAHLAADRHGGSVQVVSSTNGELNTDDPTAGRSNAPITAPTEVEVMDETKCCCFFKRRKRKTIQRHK
Mitogen-activated protein kinase 10 (Homo sapiens), sequence (P53779 whole entry): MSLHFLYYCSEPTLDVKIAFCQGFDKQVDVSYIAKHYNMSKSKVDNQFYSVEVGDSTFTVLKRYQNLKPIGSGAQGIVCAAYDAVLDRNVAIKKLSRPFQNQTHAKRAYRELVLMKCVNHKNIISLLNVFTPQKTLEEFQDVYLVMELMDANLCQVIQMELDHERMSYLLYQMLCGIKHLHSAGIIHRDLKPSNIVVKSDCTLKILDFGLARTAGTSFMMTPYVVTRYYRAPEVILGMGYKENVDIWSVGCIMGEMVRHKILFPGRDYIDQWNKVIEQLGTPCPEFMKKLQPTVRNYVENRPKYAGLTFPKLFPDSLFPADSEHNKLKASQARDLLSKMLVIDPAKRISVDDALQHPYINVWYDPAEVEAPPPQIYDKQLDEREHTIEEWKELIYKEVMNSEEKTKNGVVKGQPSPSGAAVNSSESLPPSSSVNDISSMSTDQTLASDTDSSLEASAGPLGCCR

With `CCc1ccccc1C(=O)Nc1n[nH]c2c(C)c(F)c(C3C(C#N)=C(C)N(C)C(C)=C3C#N)cc12` [BAY-3827] as the compound, how does the % residual kinase activity [1] read?
The % residual kinase activity was 110%.

And the % residual kinase activity [2]?
Its % residual kinase activity is 105%.

What about the % residual kinase activity [3] of the same compound?
Its % residual kinase activity is 99%.

And the % residual kinase activity [4]?
The % residual kinase activity was 106%.

And the % residual kinase activity [5]?
The % residual kinase activity was 109%.

What about the % residual kinase activity [6] of the same compound?
Its % residual kinase activity is 99%.

What about the % residual kinase activity [7] of the same compound?
Its % residual kinase activity is 100%.

What about the % residual kinase activity [8] of the same compound?
Its % residual kinase activity is 100%.

And the % residual kinase activity [9]?
Its % residual kinase activity is 72%.

And the % residual kinase activity [10]?
The % residual kinase activity was 110%.

And the % residual kinase activity [11]?
The % residual kinase activity was 42%.

What about the % residual kinase activity [12] of the same compound?
Its % residual kinase activity is 100%.

What about the % residual kinase activity [13] of the same compound?
The % residual kinase activity was 133%.

What about the inhibition [14] of the same compound?
Its inhibition is 67.4%.
